Measured values reported in patent publication US7482379B2, “Propenoyl hydrazides” (priority 2004, dated 2009).

Experiments:
[1] = target: Gingipain K (Porphyromonas gingivalis, UniProt Q51817); assay: biochemical; type: biochemical; details: for kinact/KI: pH 8, read-out: kobs/[I] Gingipain K
[2] = target: T1, Caspase-2 (Homo sapiens, UniProt P42575); assay: Caspase-2 progress curve inhibition assay; details: second-order rate constant; Cbz-VDVAD-AFC substrate; Pipes buffer pH 7.2
T1 sequence (P42575 170-333 limits assumed): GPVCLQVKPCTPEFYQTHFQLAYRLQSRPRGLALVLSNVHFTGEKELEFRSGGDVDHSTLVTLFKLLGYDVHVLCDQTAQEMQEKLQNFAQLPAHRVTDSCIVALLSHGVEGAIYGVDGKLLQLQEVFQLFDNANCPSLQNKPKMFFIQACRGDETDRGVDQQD
T1 sequence (P42575 348-452 limits assumed): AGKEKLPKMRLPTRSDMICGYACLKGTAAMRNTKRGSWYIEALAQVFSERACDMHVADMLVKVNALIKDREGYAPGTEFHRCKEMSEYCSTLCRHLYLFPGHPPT
Description: Inhibition rates were determined by the progress curve method known in the art. This method is suitable for measuring irreversible inhibition rates with fast inhibitors, where the inhibitor, the substrate and the enzyme are incubated together and the rate of substrate hydrolysis is measured continuously. The rate of substrate hydrolysis in the presence of the inhibitor was monitored for 20 minutes. The progress curve of inhibition, where the product formation approaches an asymptote is described in the equation ln([P∞]−[P])=ln[P∞]−A[I]t where [P] and [P∞] are the product concentrations at t and t=∞ respectively, A is the apparent rate constant in the presence of the substrate. The apparent rate constants were determined from the slopes of plots of ln ([P∞]−[P]) versus time (t) in seconds as previously described, where A=slope/[I].
(§1) For competitive and irreversible inhibition, the apparent rate constant is converted to the second order rate constant k2 by taking into consideration the effect of the substrate concentration on the apparent rate constant. The second order rate constant is described as in the equation: k2=A*(1+[S]/KM)
The concentration of the caspase-3 stock solution was 2 nM in the assay buffer. Assay buffer is a 1:1 mixture of caspase buffer (40 mM Pipes, 200 mM NaCl, 0.2% (w/v) CHAPS, sucrose 20% (w/v)) and 20 mM DTT solution in H2O at pH 7.2. The concentration of the substrate stock solution was 2 mM in DMSO. The enzyme was pre-activated for 10 min at 37° C. in the assay buffer. […] 50 μL of 2 nM enzyme stock solution (final concentration: 1 nM) was added to the mixture after 1 min and reading started immediately for 20 min at 37° C. Inhibition experiments were repeated in duplicate and standard deviations determined.
The inhibitor stock solution concentrations varied from 5×10^−3 M to 1×10^−4 M in DMSO.

[3] = target: T2, Caspase-3 (Homo sapiens, UniProt P42574); assay: Caspase-3 progress curve inhibition assay; details: second-order rate constant; Ac-DEVD-AMC substrate; Pipes buffer pH 7.2
T2 sequence (P42574 29-175 limits assumed): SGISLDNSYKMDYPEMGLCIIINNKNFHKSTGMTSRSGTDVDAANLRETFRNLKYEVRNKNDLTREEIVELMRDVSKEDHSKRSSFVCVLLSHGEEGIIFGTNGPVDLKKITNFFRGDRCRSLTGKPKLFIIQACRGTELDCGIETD
T2 sequence (P42574 176-277 limits assumed): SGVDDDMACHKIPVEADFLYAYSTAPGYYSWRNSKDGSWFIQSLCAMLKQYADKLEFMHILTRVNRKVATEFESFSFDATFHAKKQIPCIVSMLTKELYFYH

[4] = target: T3, Caspase-6 (Homo sapiens, UniProt P55212); assay: Caspase-6 progress curve inhibition assay; details: second-order rate constant; Ac-DEVD-AMC substrate; Pipes buffer pH 7.2
T3 sequence (P55212 24-179 limits assumed): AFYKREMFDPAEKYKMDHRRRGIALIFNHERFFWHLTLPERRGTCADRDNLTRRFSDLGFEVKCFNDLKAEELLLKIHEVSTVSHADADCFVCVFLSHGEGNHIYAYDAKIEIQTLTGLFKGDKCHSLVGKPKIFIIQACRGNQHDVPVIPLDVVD
T3 sequence (P55212 194-293 limits assumed): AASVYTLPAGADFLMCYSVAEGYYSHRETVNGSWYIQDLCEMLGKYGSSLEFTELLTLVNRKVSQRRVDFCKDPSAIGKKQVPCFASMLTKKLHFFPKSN

[5] = target: T4, Caspase-7 (Homo sapiens, UniProt P55210); assay: Caspase-7 progress curve inhibition assay; details: second-order rate constant; Ac-DEVD-AMC substrate; Pipes buffer pH 7.2
T4 sequence (P55210 24-198 limits assumed): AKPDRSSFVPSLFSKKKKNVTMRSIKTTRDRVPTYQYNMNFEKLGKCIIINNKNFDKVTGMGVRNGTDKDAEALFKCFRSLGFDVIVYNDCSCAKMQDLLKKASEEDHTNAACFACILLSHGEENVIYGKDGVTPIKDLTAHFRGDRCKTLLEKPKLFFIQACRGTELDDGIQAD
T4 sequence (P55210 207-303 limits assumed): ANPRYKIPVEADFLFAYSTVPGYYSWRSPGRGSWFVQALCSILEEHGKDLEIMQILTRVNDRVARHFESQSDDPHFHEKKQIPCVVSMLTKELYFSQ

[6] = target: Caspase-8 (Homo sapiens, UniProt Q14790); assay: Caspase-8 progress curve inhibition assay; details: second-order rate constant; Ac-DEVD-AMC substrate; Pipes buffer pH 7.2
Caspase-8, sequence (Q14790 217-374 limits assumed): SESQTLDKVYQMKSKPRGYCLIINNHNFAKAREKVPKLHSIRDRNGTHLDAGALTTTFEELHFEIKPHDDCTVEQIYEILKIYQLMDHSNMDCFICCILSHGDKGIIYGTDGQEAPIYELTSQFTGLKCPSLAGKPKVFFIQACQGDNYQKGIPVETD
Caspase-8, sequence (Q14790 385-479 limits assumed): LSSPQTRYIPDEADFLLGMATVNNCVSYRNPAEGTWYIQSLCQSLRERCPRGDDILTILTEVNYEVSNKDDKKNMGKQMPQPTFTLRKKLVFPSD

[7] = target: T5, Caspase-9 (Homo sapiens, UniProt P55211); assay: Caspase-9 progress curve inhibition assay; details: second-order rate constant; Ac-LEHD-AFC substrate; Hepes buffer pH 7.0 with 0.7 M sodium citrate
T5 sequence (P55211 1-315 limits assumed): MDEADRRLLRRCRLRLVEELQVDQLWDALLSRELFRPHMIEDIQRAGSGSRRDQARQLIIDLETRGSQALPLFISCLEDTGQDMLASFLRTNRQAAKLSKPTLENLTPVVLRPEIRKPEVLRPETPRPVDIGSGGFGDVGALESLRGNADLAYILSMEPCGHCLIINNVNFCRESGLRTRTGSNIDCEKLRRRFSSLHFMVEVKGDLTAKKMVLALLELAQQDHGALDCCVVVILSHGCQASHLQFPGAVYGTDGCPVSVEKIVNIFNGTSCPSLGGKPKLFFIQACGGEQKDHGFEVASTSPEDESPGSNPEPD
T5 sequence (P55211 331-416 limits assumed): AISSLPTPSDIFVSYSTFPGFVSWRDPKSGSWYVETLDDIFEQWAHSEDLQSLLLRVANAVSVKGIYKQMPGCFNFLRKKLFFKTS
Description: Caspases-2, -3, -6, -7, -8, -9 and -10 were expressed in E. coli and purified in Guy Salvesen's laboratory at the Burnham Institute, La Jolla, Calif., according to the methods known in the art. Inhibition rates were determined by the progress curve method known in the art. This method is suitable for measuring irreversible inhibition rates with fast inhibitors, where the inhibitor, the substrate and the enzyme are incubated together and the rate of substrate hydrolysis is measured continuously. The rate of substrate hydrolysis in the presence of the inhibitor was monitored for 20 minutes. The progress curve of inhibition, where the product formation approaches an asymptote is described in the equation ln([P∞]−[P])=ln[P∞]−A[I]t where [P] and [P∞] are the product concentrations at t and t=∞ respectively, A is the apparent rate constant in the presence of the substrate. The apparent rate constants were determined from the slopes of plots of ln ([P∞]−[P]) versus time (t) in seconds as previously described, where A=slope/[I].
as §1
Assay buffer is a 1:1 mixture of buffer (200 mM Hepes, 100 mM NaCl, 0.02% (w/v) CHAPS, sucrose 20% (w/v)) and 20 mM DTT solution in H2O at pH 7.0). The assay buffer was supplemented with 0.7 M sodium citrate. The enzyme was pre-activated for 10 min at 37° C. in the assay buffer.

[8] = target: T6, Caspase-10 (Homo sapiens, UniProt Q92851); assay: Caspase-10 progress curve inhibition assay; details: second-order rate constant; Ac-DEVD-AMC substrate; Hepes/PEG buffer pH 7.0
T6 sequence (Q92851 220-415 limits assumed): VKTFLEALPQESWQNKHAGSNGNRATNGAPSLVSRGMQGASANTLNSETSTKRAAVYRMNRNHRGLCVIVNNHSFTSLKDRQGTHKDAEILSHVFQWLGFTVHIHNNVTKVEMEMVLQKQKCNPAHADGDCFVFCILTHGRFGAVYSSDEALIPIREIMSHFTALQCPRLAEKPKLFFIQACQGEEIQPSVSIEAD
T6 sequence (Q92851 416-521 limits assumed): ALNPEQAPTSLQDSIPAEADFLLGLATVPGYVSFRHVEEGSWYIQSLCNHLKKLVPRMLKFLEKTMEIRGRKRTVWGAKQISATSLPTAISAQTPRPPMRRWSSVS
Description: Caspase-2, -3, -6, -7, -8, -9 and -10. Caspases-2, -3, -6, -7, -8, -9 and -10 were expressed in E. coli and purified in Guy Salvesen's laboratory at the Burnham Institute, La Jolla, Calif., according to the methods known in the art. Inhibition rates were determined by the progress curve method known in the art. This method is suitable for measuring irreversible inhibition rates with fast inhibitors, where the inhibitor, the substrate and the enzyme are incubated together and the rate of substrate hydrolysis is measured continuously. The rate of substrate hydrolysis in the presence of the inhibitor was monitored for 20 minutes. The progress curve of inhibition, where the product formation approaches an asymptote is described in the equation ln([P∞]−[P])=ln[P∞]−A[I]t where [P] and [P∞] are the product concentrations at t and t=∞ respectively, A is the apparent rate constant in the presence of the substrate. The apparent rate constants were determined from the slopes of plots of ln ([P∞]−[P]) versus time (t) in seconds as previously described, where A=slope/[I].
as §1
Assay buffer is a 1:1 mixture of buffer (200 mM Hepes, 0.2% (w/v) CHAPS, PEG 20% (w/v)) and 20 mM DTT solution in H2O at pH 7.0). The enzyme was pre-activated for 10 min at 25° C. in the assay buffer.

[9] = target: S. mansoni legumain (Schistosoma mansoni, UniProt P09841, N192C); assay: S. mansoni legumain (SmAE) inhibition assay; type: biochemical
S. mansoni legumain, sequence (P09841 32-291 N192C): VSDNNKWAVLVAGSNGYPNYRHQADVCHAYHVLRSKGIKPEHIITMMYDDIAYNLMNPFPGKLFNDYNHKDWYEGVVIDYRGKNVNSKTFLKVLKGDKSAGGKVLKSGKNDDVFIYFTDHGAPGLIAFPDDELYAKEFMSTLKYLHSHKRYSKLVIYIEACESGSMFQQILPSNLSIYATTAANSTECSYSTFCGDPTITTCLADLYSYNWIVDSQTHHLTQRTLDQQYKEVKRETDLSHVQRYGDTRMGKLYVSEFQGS
Description: Studies with the propenoyl hydrazides using the schistosome legumain […], (Schistosoma mansoni asparaginyl endopeptidase) were also performed. […] The actual active site enzyme concentration is unknown. The lyophilized enzyme ([…]) was reconstituted in 1.5 mL 0.5 M sodium acetate, pH 4.5 containing 4 mM DTT, and left to stand at 37° C. for 3-4 hours to allow for auto-activation of the zymogen. In a black 96-well microtiter plate, 50 μL of activated enzyme was added to an equal volume of 0.1 M citrate-phosphate buffer pH 6.8 containing 4 mM DTT. Inhibitor stock solutions (20 mM) were prepared in DMSO. Serial dilutions (using water) of inhibitor were added (as 1 μL aliquots) to yield concentrations of between 2 and 0.00002 μM inhibitor. […] After incubating various inhibitor concentrations with enzyme, 100 μL of the same buffer containing 20 μM substrate (Cbz-Ala-Ala-Asn-AMC) was added to the wells and the reaction monitored at room temperature with linear kinetics up to 20 minutes. Inhibitors are tested in duplicate. A plot of the RFU/min versus the inhibitor concentration [μM] permitted calculation of an IC50 value and estimation of the kobs/[I].

Gingipain K, sequence (Q51817 229-1732 limits assumed): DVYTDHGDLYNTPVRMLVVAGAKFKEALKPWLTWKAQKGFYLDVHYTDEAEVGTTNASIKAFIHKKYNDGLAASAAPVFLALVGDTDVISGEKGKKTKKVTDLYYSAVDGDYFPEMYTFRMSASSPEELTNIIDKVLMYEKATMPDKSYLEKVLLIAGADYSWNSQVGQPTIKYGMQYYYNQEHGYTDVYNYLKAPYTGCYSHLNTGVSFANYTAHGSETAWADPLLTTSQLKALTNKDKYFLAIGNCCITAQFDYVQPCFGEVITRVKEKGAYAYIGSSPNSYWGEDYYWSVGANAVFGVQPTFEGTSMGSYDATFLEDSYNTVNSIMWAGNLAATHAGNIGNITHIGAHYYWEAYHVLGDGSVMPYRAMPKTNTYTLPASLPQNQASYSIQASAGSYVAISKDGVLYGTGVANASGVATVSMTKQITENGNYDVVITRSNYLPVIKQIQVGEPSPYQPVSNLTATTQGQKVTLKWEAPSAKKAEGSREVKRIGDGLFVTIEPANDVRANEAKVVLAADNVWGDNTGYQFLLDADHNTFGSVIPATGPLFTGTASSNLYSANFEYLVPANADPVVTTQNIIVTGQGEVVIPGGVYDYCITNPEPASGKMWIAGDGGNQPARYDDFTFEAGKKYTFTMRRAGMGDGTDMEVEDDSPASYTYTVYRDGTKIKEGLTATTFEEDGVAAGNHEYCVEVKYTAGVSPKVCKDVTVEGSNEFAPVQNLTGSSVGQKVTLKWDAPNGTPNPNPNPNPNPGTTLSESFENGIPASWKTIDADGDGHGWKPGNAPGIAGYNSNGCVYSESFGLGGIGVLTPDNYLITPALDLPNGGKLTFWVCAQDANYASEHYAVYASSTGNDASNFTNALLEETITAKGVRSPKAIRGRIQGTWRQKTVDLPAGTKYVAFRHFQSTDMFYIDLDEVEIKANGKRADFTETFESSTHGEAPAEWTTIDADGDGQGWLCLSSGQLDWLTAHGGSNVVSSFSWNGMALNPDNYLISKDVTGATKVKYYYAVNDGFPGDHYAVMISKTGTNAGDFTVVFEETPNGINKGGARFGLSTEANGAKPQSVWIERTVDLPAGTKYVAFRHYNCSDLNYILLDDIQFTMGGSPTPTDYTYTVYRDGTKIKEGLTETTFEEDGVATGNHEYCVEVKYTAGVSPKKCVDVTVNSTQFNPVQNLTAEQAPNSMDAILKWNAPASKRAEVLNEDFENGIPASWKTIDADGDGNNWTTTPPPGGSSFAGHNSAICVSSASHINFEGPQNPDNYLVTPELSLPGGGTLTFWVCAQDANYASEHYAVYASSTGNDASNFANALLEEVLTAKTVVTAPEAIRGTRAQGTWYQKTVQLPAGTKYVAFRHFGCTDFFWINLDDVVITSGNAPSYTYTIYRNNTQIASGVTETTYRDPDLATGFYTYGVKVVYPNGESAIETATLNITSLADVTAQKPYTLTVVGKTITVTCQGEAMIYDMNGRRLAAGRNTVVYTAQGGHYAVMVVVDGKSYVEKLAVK

| Compound | kobs/[I] Gingipain K ([1]; Table 6, legumain specific inhibitors, NI = no inhibition after 20 minutes of incubation) [M⁻¹ s⁻¹] | k2 Caspase-2 [2] [M⁻¹ s⁻¹] | k2 Caspase-3 [3] | k2 Caspase-6 [4] | k2 Caspase-7 [5] | k2 Caspase-8 [6] | k2 Caspase-9 [7] | k2 Caspase-10 [8] | IC50 [9] [nM] | kinact/KI [1] [M⁻¹ s⁻¹] |
| --- | --- | --- | --- | --- | --- | --- | --- | --- | --- | --- |
| CC(NC(=O)OCc1ccccc1)C(=O)NC(C)C(=O)NN(CC(N)=O)C(=O)C=CC(=O)N(C)c1ccc2ccccc2c1 (centres unmarked) | 6 |  |  |  |  |  |  |  |  |  |
| CC(C)C[C@H](NC(=O)OCc1ccccc1)C(=O)N[C@@H](CCC(=O)O)C(=O)N[C@H](C(=O)NN(CC(=O)O)C(=O)/C=C/C(=O)Nc1ccccc1)[C@@H](C)O (relative stereo) [Cbz-Leu-Glu-Thr-AAsp-CH═CH—CONHPh, N^2—(N-Benzyloxycarbonylleucylglutamylthreonyl)-N^1-carboxylmethyl-N^1-trans-(3-phenylcarbamoylpropenoyl)hydrazine] |  | 290 | 4,700 M^−1s^−1 | 11,400 M^−1s^−1 | 730 M⁻¹ s⁻¹ | 176,000 M^−1s^−1 | 1,190 M^−1s^−1 | 6,050 M^−1s^−1 |  |  |
| CCOC(=O)/C=C/C(=O)N(CC(=O)O)NC(=O)[C@@H](NC(=O)[C@H](CCC(=O)O)NC(=O)[C@@H](NC(=O)OCc1ccccc1)C(C)C)C(C)C (relative stereo) [Cbz-Val-Glu-Val-AAsp-CH═CH—COOEt, N^2—(N-Benzyloxycarbonylvalylglutamylvalyl)-N^1-carboxymethyl-N^1-trans-(3-ethoxycarbonylpropenoyl)hydrazine] |  | 115 | 41,200 M^−1s^−1 | 83,600 M^−1s^−1 | 3,650 M^−1s^−1 | 175,800 M^−1s^−1 | 340 M⁻¹ s⁻¹ | 6,600 M^−1s^−1 |  |  |
| CC(C)[C@H](NC(=O)[C@H](CCC(=O)O)NC(=O)[C@H](CC(=O)O)NC(=O)OCc1ccccc1)C(=O)NN(CC(=O)O)C(=O)/C=C/C(=O)NCc1ccc(F)cc1 (relative stereo) [N^2—(N-Benzyloxycarbonylaspartylglutamylvalyl)-N^1-carboxymethyl-N^1-trans-(3-(4-fluorobenzyl)carbamoylpropenoyl)hydrazine] |  | 130 | 2,100,000 M^−1s^−1 | 4,400 M^−1s^−1 | 329,000 M^−1s^−1 | 85,100 M^−1s^−1 | 900 M⁻¹ s⁻¹ | 37,700 M^−1s^−1 |  |  |
| CC(C)[C@H](NC(=O)[C@H](CCC(=O)O)NC(=O)[C@H](CC(=O)O)NC(=O)OCc1ccccc1)C(=O)NN(CC(=O)O)C(=O)/C=C/C(=O)N(C)CCc1ccccc1 (relative stereo) [N^2—(N-Benzyloxycarbonylaspartylglutamylvalyl)-N^1-carboxymethyl-N^1-trans-(3-phenethylmethylcarbamoylpropenoyl)hydrazine] |  | 320 | 1,180,000 M^−1s^−1 | 4,000 M^−1s^−1 | 172,000 M^−1s^−1 | 31,900 M^−1s^−1 | 425 M⁻¹ s⁻¹ | 9,570 M^−1s^−1 |  |  |
| CC(C)C[C@H](NC(=O)OCc1ccccc1)C(=O)N[C@@H](CCC(=O)O)C(=O)N[C@H](C(=O)NN(CC(=O)O)C(=O)/C=C/C(=O)NCc1ccc(F)cc1)[C@@H](C)O (relative stereo) [N^2—(N-Benzyloxycarbonylleucylglutamylthreonyl)-N^1-carboxylmethyl-N^1-trans-(3-(4-fluorobenzyl)carbamoylpropenoyl)hydrazine] |  | 70 | 4,490 M^−1s^−1 | 3,100 M^−1s^−1 | 410 M⁻¹ s⁻¹ | 171,000 M^−1s^−1 | 1,695 M^−1s^−1 | 9,380 M^−1s^−1 |  |  |
| CC(C)C[C@H](NC(=O)OCc1ccccc1)C(=O)N[C@@H](CCC(=O)O)C(=O)N[C@H](C(=O)NN(CC(=O)O)C(=O)/C=C/C(=O)N(C)Cc1cccc2ccccc12)[C@@H](C)O (relative stereo) [N^2—(N-Benzyloxycarbonylleucylglutamylthreonyl)-N^1-carboxylmethyl-N^1-trans-(3-(methyl-1-naphthylmethyl)carbamoylpropenoyl)hydrazine] |  | 290 | 11,200 M^−1s^−1 | 21,700 M^−1s^−1 | 1,100 M^−1s^−1 | 179,000 M^−1s^−1 | 5,030 M^−1s^−1 | 13,600 M^−1s^−1 |  |  |
| CC(C)C[C@H](NC(=O)OCc1ccccc1)C(=O)N[C@@H](CCC(=O)O)C(=O)N[C@H](C(=O)NN(CC(=O)O)C(=O)/C=C/C(=O)N(C)CCc1ccccc1)[C@@H](C)O (relative stereo) [N^2—(N-Benzyloxycarbonylleucylglutamylthreonyl)-N^1-carboxylmethyl-N^1-trans-(3-methylphenylethylcarbamoylpropenoyl)hydrazine] |  | 50 | 2,620 M^−1s^−1 | 2,550 M^−1s^−1 | 290 M⁻¹ s⁻¹ | 65,300 M^−1s^−1 | 960 M⁻¹ s⁻¹ | 6,190 M^−1s^−1 |  |  |
| C[C@H](NC(=O)OCc1ccccc1)C(=O)N[C@@H](C)C(=O)NN(CC(N)=O)C(=O)/C=C/C(=O)N1CCc2ccccc21 [Cbz-Ala-Ala-AAsn-CH═CH—CO-indoline, N^2—(N-Benzyloxycarbonylalanylalanyl)-N^1-carbamoylmethyl-N^1-trans-(3-(2,3-dihydroindol-1-yloxo)propenoyl)hydrazine] |  |  |  |  |  |  |  |  | 70 | 1 |
| C[C@H](NC(=O)OCc1ccccc1)C(=O)N[C@@H](C)C(=O)NN(CC(N)=O)C(=O)/C=C/C(=O)N(C)Cc1ccccc1 [Cbz-Ala-Ala-AAsn-CH═CH—CON(CH3)Bzl, N^2—(N-Benzyloxycarbonylalanylalanyl)-N^1-carbamoylmethyl-N^1-trans-(3-benzylmethylcarbamoylpropenoyl)hydrazine] |  |  |  |  |  |  |  |  |  | 1 |
